# Tested on: MV-4-11 cells
# Assay: Gene expression microarray analysis (Affymetrix PrimeView) and GSEA
# Assay type: cell-based, human
# Set-up: RFU PODN (11730768_x_at) / Fold change /veh PODN (11730768_x_at) / RFU LINC00158 (11744669_a_at) / Fold change /veh LINC00158 (11744669_a_at) / RFU DUSP10 (11751237_a_at) / Fold change /veh DUSP10 (11751237_a_at) / RFU ID3 (11757404_x_at) / Fold change /veh ID3 (11757404_x_at) / RFU PLEKHG5 (11737974_s_at) / Fold change /veh PLEKHG5 (11737974_s_at) / RFU LRRC4B (11730491_at) / Fold change /veh LRRC4B (11730491_at) / RFU GIMAP4 (11747438_a_at) / Fold change /veh GIMAP4 (11747438_a_at) / RFU KRT8 (11758183_x_at) / Fold change /veh KRT8 (11758183_x_at) / RFU CNN1 (11734310_a_at) / Fold change /veh CNN1 (11734310_a_at) / RFU VPS37D (11726825_at) / Fold change /veh VPS37D (11726825_at) / RFU C10orf10 (11716522_x_at) / Fold change /veh C10orf10 (11716522_x_at) / RFU KIR2DL2 /// KIR2DL4 /// KIR2DL5A /// KIR2DL5B /// KIR2DS1 /// KIR2DS2 /// KIR2DS3 /// KIR2DS4 /// KIR3DL3 /// KIR3DL3 /// KIR3DS1 (11738374_at) / Fold change /veh KIR2DL2 /// KIR2DL4 /// KIR2DL5A /// KIR2DL5B /// KIR2DS1 /// KIR2DS2 /// KIR2DS3 /// KIR2DS4 /// KIR3DL3 /// KIR3DL3 /// KIR3DS1 (11738374_at) / RFU C1QL1 (11718748_at) / Fold change /veh C1QL1 (11718748_at) / RFU TMPRSS4 (11747572_a_at) / Fold change /veh TMPRSS4 (11747572_a_at) / RFU HAMP (11756126_x_at) / Fold change /veh HAMP (11756126_x_at) / RFU RNFT2 (11725882_a_at) / Fold change /veh RNFT2 (11725882_a_at) / RFU NR4A2 (11747474_a_at) / Fold change /veh NR4A2 (11747474_a_at) / RFU ABCC12 (11746883_a_at) / Fold change /veh ABCC12 (11746883_a_at) / RFU TMEM136 (11760407_x_at) / Fold change /veh TMEM136 (11760407_x_at) / RFU CLDN22 /// WWC2 (11732394_at) / Fold change /veh CLDN22 /// WWC2 (11732394_at) / RFU HLA-DPB1 (11760878_x_at) / Fold change /veh HLA-DPB1 (11760878_x_at) / RFU SPINT1 (11716480_a_at) / Fold change /veh SPINT1 (11716480_a_at) / RFU GAP43 (11754022_s_at) / Fold change /veh GAP43 (11754022_s_at) / RFU A4GNT (11735810_at) / Fold change /veh A4GNT (11735810_at) / RFU PRB3 (11715151_x_at) / Fold change /veh PRB3 (11715151_x_at) / RFU TUBB4B (11761932_at) / Fold change /veh TUBB4B (11761932_at) / RFU CAPN14 (11732068_a_at) / Fold change /veh CAPN14 (11732068_a_at) / RFU TMCC2 (11721928_a_at) / Fold change /veh TMCC2 (11721928_a_at) / RFU IRGQ (11745062_a_at) / Fold change /veh IRGQ (11745062_a_at) / RFU FAM174B (11720279_a_at) / Fold change /veh FAM174B (11720279_a_at) / RFU TMPRSS4 (11748680_a_at) / Fold change /veh TMPRSS4 (11748680_a_at) / RFU FAM212B (11763350_a_at) / Fold change /veh FAM212B (11763350_a_at) / RFU PLEKHG5 (11743358_a_at) / Fold change /veh PLEKHG5 (11743358_a_at) / RFU ZSCAN30 (11745921_a_at) / Fold change /veh ZSCAN30 (11745921_a_at) / RFU CMKLR1 (11741424_a_at) / Fold change /veh CMKLR1 (11741424_a_at) / RFU LOC101060620 /// MAPK8IP1 (11723275_at) / Fold change /veh LOC101060620 /// MAPK8IP1 (11723275_at) / RFU SPTSSB (11747773_x_at) / Fold change /veh SPTSSB (11747773_x_at) / RFU PRSS12 (11739890_at) / Fold change /veh PRSS12 (11739890_at) / RFU BIN1 (11741810_x_at) / Fold change /veh BIN1 (11741810_x_at) / RFU WNT11 (11732464_a_at) / Fold change /veh WNT11 (11732464_a_at) / RFU C10orf10 (11716521_a_at) / Fold change /veh C10orf10 (11716521_a_at) / RFU C5orf56 (11738089_at) / Fold change /veh C5orf56 (11738089_at) / RFU CYB561 (11721691_x_at) / Fold change /veh CYB561 (11721691_x_at) / RFU ANKRD19P (11752326_a_at) / Fold change /veh ANKRD19P (11752326_a_at) / RFU OR2T12 /// OR2T33 /// OR2T8 (11738714_s_at) / Fold change /veh OR2T12 /// OR2T33 /// OR2T8 (11738714_s_at) / RFU VCAN (11748164_a_at) / Fold change /veh VCAN (11748164_a_at) / RFU JSRP1 (11732532_at) / Fold change /veh JSRP1 (11732532_at) / RFU KRTAP10-11 (11738290_x_at) / Fold change /veh KRTAP10-11 (11738290_x_at) / RFU MYO3A (11730013_a_at) / Fold change /veh MYO3A (11730013_a_at) / RFU EBF3 (11725865_a_at) / Fold change /veh EBF3 (11725865_a_at) / RFU CAMK2N1 (11719241_x_at) / Fold change /veh CAMK2N1 (11719241_x_at) / RFU C5orf56 (11738088_a_at) / Fold change /veh C5orf56 (11738088_a_at) / RFU OLFML3 (11715873_a_at) / Fold change /veh OLFML3 (11715873_a_at) / RFU LOC100653217 /// NTM (11731650_a_at) / Fold change /veh LOC100653217 /// NTM (11731650_a_at) / RFU MAPK11 (11762145_a_at) / Fold change /veh MAPK11 (11762145_a_at) / RFU FIZ1 (11724087_x_at) / Fold change /veh FIZ1 (11724087_x_at) / RFU OASL (11726364_x_at) / Fold change /veh OASL (11726364_x_at) / RFU SOX15 (11748057_x_at) / Fold change /veh SOX15 (11748057_x_at) / RFU CD79A (11719716_a_at) / Fold change /veh CD79A (11719716_a_at) / RFU HIST1H1D (11736915_at) / Fold change /veh HIST1H1D (11736915_at) / RFU CASKIN2 (11723855_a_at) / Fold change /veh CASKIN2 (11723855_a_at) / RFU LOC730098 (11760151_x_at) / Fold change /veh LOC730098 (11760151_x_at) / RFU OR4N2 (11742367_at) / Fold change /veh OR4N2 (11742367_at) / RFU PRRT2 (11749266_a_at) / Fold change /veh PRRT2 (11749266_a_at) / RFU SNX32 (11753110_a_at) / Fold change /veh SNX32 (11753110_a_at) / RFU CDHR5 (11726645_a_at) / Fold change /veh CDHR5 (11726645_a_at) / RFU RCAN1 (11760418_a_at) / Fold change /veh RCAN1 (11760418_a_at) / RFU FAM167A (11723789_a_at) / Fold change /veh FAM167A (11723789_a_at) / RFU FAM26E (11764081_at) / Fold change /veh FAM26E (11764081_at) / RFU ISYNA1 (11749810_s_at) / Fold change /veh ISYNA1 (11749810_s_at) / RFU ACY1 (11761880_at) / Fold change /veh ACY1 (11761880_at) / RFU 11764098_at / Fold change /veh 11764098_at / RFU SAMD14 (11745864_x_at) / Fold change /veh SAMD14 (11745864_x_at) / RFU NPB (11741838_a_at) / Fold change /veh NPB (11741838_a_at) / RFU TMPRSS6 (11731388_a_at) / Fold change /veh TMPRSS6 (11731388_a_at) / RFU KRTAP10-2 (11738614_at) / Fold change /veh KRTAP10-2 (11738614_at) / RFU ARHGAP8 /// PRR5-ARHGAP8 (11727945_x_at) / Fold change /veh ARHGAP8 /// PRR5-ARHGAP8 (11727945_x_at) / RFU KRTAP5-7 /// NADSYN1 (11734609_at) / Fold change /veh KRTAP5-7 /// NADSYN1 (11734609_at) / RFU RASL12 (11751679_a_at) / Fold change /veh RASL12 (11751679_a_at) / RFU CDKN2B (11736163_a_at) / Fold change /veh CDKN2B (11736163_a_at) / RFU PRF1 (11729649_at) / Fold change /veh PRF1 (11729649_at) / RFU, ZNF638 /// ZNF638-IT1 / Fold change vs veh, ZNF638 /// ZNF638-IT1 / RFU, PANK3 / Fold change vs veh, PANK3 / RFU, SH3YL1 / Fold change vs veh, SH3YL1 / RFU, ZEB2 / Fold change vs veh, ZEB2 / RFU, NRIP1 / Fold change vs veh, NRIP1 / RFU, PTTG1IP / Fold change vs veh, PTTG1IP / RFU, CAPN2 / Fold change vs veh, CAPN2 / RFU, MED14 / Fold change vs veh, MED14 / RFU, SNORA58 / Fold change vs veh, SNORA58 / RFU, C1orf63 / Fold change vs veh, C1orf63 / RFU, LRRFIP1 / Fold change vs veh, LRRFIP1 / RFU, NDUFAF7 / Fold change vs veh, NDUFAF7 / RFU, SLC12A2 / Fold change vs veh, SLC12A2 / RFU, IBTK / Fold change vs veh, IBTK / RFU, ESF1 / Fold change vs veh, ESF1 / Fold change vs veh, TMEM50B / RFU, TAOK1 / Fold change vs veh, TAOK1 / RFU, ACBD3 / Fold change vs veh, ACBD3 / RFU, TMA16 / Fold change vs veh, TMA16 / RFU, RWDD3 / Fold change vs veh, RWDD3 / RFU, BCAT1 / Fold change vs veh, BCAT1 / RFU, EDEM3 / Fold change vs veh, EDEM3 / RFU, TMEM33 / Fold change vs veh, TMEM33 / RFU, WDR75 / Fold change vs veh, WDR75 / RFU, AHCTF1 / Fold change vs veh, AHCTF1 / RFU, TFRC / Fold change vs veh, TFRC / RFU, ZDHHC17 / Fold change vs veh, ZDHHC17 / RFU, NOM1 / Fold change vs veh, NOM1 / RFU, ARL8B / Fold change vs veh, ARL8B / RFU, ZBTB11 / Fold change vs veh, ZBTB11 / RFU, TAMM41 / Fold change vs veh, TAMM41 / RFU, KIAA1704 /// LOC100996395 / Fold change vs veh, KIAA1704 /// LOC100996395 / RFU, ING1 / Fold change vs veh, ING1 / RFU, TRMT61B / Fold change vs veh, TRMT61B / RFU, FUBP3 / Fold change vs veh, FUBP3 / RFU, TP53 / Fold change vs veh, TP53 / RFU, TNKS2 / Fold change vs veh, TNKS2 / RFU, ZFP14 / Fold change vs veh, ZFP14 / RFU, ACTR2 / Fold change vs veh, ACTR2 / RFU, PPP3R1 / Fold change vs veh, PPP3R1 / RFU, PIK3R1 / Fold change vs veh, PIK3R1 / RFU, HNRNPA1 / Fold change vs veh, HNRNPA1 / RFU, RNF170 / Fold change vs veh, RNF170 / RFU, ZNF28 / Fold change vs veh, ZNF28 / RFU, RNGTT / Fold change vs veh, RNGTT / RFU, OGT / Fold change vs veh, OGT / RFU, BRD1 / Fold change vs veh, BRD1 / RFU, MARS / Fold change vs veh, MARS / RFU, ZNF655 / Fold change vs veh, ZNF655 / RFU, FAHD1 / Fold change vs veh, FAHD1 / RFU, BDP1 / Fold change vs veh, BDP1 / RFU, LRRCC1 / Fold change vs veh, LRRCC1 / RFU, ARID1A / Fold change vs veh, ARID1A / RFU, ZNF146 / Fold change vs veh, ZNF146 / RFU, ZNF330 / Fold change vs veh, ZNF330 / RFU, GPN3 / Fold change vs veh, GPN3 / RFU, C9orf123 / Fold change vs veh, C9orf123 / RFU, N4BP2L2 / Fold change vs veh, N4BP2L2 / RFU, ARFIP1 / Fold change vs veh, ARFIP1 / RFU, FAM179B / Fold change vs veh, FAM179B / RFU, BCL10 / Fold change vs veh, BCL10 / RFU, UHRF1BP1L / Fold change vs veh, UHRF1BP1L / RFU, BET1 / Fold change vs veh, BET1 / RFU, CNOT2 / Fold change vs veh, CNOT2 / RFU, ZNF268 / Fold change vs veh, ZNF268 / Fold change vs veh, ZNF507 / RFU, DGCR2 / Fold change vs veh, DGCR2 / RFU, WDSUB1 / Fold change vs veh, WDSUB1 / Fold change vs veh, HSP90B1 /// MIR3652 / RFU, ADSS / Fold change vs veh, ADSS / RFU, GK / Fold change vs veh, GK / RFU, ZNF148 / Fold change vs veh, ZNF148 / RFU, TAF9 / Fold change vs veh, TAF9 / RFU, SLC1A5 / Fold change vs veh, SLC1A5 / RFU, SLMO2 / Fold change vs veh, SLMO2 / RFU, ABCC4 / Fold change vs veh, ABCC4 / RFU, LOC101060439 /// RAP1B / Fold change vs veh, LOC101060439 /// RAP1B / RFU, RFX7 / Fold change vs veh, RFX7 / RFU, GTPBP10 / Fold change vs veh, GTPBP10 / RFU, CNEP1R1 / Fold change vs veh, CNEP1R1 / RFU, BIVM-ERCC5 /// ERCC5 / Fold change vs veh, BIVM-ERCC5 /// ERCC5 / RFU, ILF3 / Fold change vs veh, ILF3 / RFU 11762660_at / Fold change /veh 11762660_at / RFU VCAN (11757783_s_at) / Fold change /veh VCAN (11757783_s_at) / RFU DDX43 (11728927_at) / Fold change /veh DDX43 (11728927_at) / RFU KRT8 (11758188_x_at) / Fold change /veh KRT8 (11758188_x_at) / RFU NKD1 (11759106_at) / Fold change /veh NKD1 (11759106_at) / RFU SRD5A1 (11742802_a_at) / Fold change /veh SRD5A1 (11742802_a_at) / RFU TPSAB1 /// TPSB2 (11721975_s_at) / Fold change /veh TPSAB1 /// TPSB2 (11721975_s_at) / RFU GSTM3 (11746129_a_at) / Fold change /veh GSTM3 (11746129_a_at) / RFU IL23R (11737362_x_at) / Fold change /veh IL23R (11737362_x_at) / RFU TMEM51 (11727254_a_at) / Fold change /veh TMEM51 (11727254_a_at) / RFU PIWIL2 (11732686_x_at) / Fold change /veh PIWIL2 (11732686_x_at) / RFU ORM1 (11744905_x_at) / Fold change /veh ORM1 (11744905_x_at) / RFU CCDC152 (11743942_at) / Fold change /veh CCDC152 (11743942_at) / RFU ECM1 (11717891_a_at) / Fold change /veh ECM1 (11717891_a_at) / RFU IL23R (11748794_a_at) / Fold change /veh IL23R (11748794_a_at) / RFU TNFAIP8L3 (11732012_x_at) / Fold change /veh TNFAIP8L3 (11732012_x_at) / RFU MBOAT4 (11741988_at) / Fold change /veh MBOAT4 (11741988_at) / RFU 11764193_at / Fold change /veh 11764193_at / RFU TMEM53 (11763286_at) / Fold change /veh TMEM53 (11763286_at) / RFU MAGEB2 (11727129_at) / Fold change /veh MAGEB2 (11727129_at) / RFU TMEM200A (11744735_a_at) / Fold change /veh TMEM200A (11744735_a_at) / RFU CCDC152 (11751479_a_at) / Fold change /veh CCDC152 (11751479_a_at) / RFU FAM211A (11726209_a_at) / Fold change /veh FAM211A (11726209_a_at) / RFU RGS16 (11746705_a_at) / Fold change /veh RGS16 (11746705_a_at) / RFU VCAN (11755009_s_at) / Fold change /veh VCAN (11755009_s_at) / RFU RHOB (11743442_s_at) / Fold change /veh RHOB (11743442_s_at) / RFU RGS16 (11720943_a_at) / Fold change /veh RGS16 (11720943_a_at) / RFU RGS16 (11720944_at) / Fold change /veh RGS16 (11720944_at) / RFU, VPS4B / Fold change vs veh, VPS4B / RFU, CREB1 / Fold change vs veh, CREB1 / RFU, DNAJC13 / Fold change vs veh, DNAJC13 / RFU, GNAQ / Fold change vs veh, GNAQ / RFU, CDK5R1 / Fold change vs veh, CDK5R1 / RFU, ZRANB3 / Fold change vs veh, ZRANB3 / RFU, CUL4A / Fold change vs veh, CUL4A / RFU, CCNY / Fold change vs veh, CCNY / RFU, UFL1 / Fold change vs veh, UFL1 / RFU, COG3 / Fold change vs veh, COG3 / RFU, DIAPH2 / Fold change vs veh, DIAPH2 / RFU, SKA2 / Fold change vs veh, SKA2 / RFU, AFF3 / Fold change vs veh, AFF3 / RFU, LMF1 / Fold change vs veh, LMF1 / RFU, IPO11 / Fold change vs veh, IPO11 / RFU, DFFB / Fold change vs veh, DFFB / RFU, FOXP1 / Fold change vs veh, FOXP1 / RFU, CARD8 / Fold change vs veh, CARD8 / RFU, STRN3 / Fold change vs veh, STRN3 / RFU, ADK / Fold change vs veh, ADK / RFU, RASSF2 / Fold change vs veh, RASSF2 / RFU, WIPF1 / Fold change vs veh, WIPF1 / RFU, LARP1B / Fold change vs veh, LARP1B / RFU, RASA1 / Fold change vs veh, RASA1 / RFU, RB1 / Fold change vs veh, RB1 / RFU, PPFIA1 / Fold change vs veh, PPFIA1 / RFU, MAT2A / Fold change vs veh, MAT2A / RFU, CCT5 / Fold change vs veh, CCT5 / RFU, WDR92 / Fold change vs veh, WDR92 / RFU, CUX1 / Fold change vs veh, CUX1 / RFU, TTC7A / Fold change vs veh, TTC7A / RFU, TMEM135 / Fold change vs veh, TMEM135 / RFU, DEPTOR / Fold change vs veh, DEPTOR / RFU, CPM / Fold change vs veh, CPM / RFU, DNAJB6 / Fold change vs veh, DNAJB6 / RFU, CACNA2D3 / Fold change vs veh, CACNA2D3 / RFU, DTX4 / Fold change vs veh, DTX4 / RFU, TFCP2 / Fold change vs veh, TFCP2 / RFU, GMCL1 /// GMCL1P1 / Fold change vs veh, GMCL1 /// GMCL1P1 / RFU, AEBP2 / Fold change vs veh, AEBP2 / RFU, SNHG1 /// SNORD22 /// SNORD25 /// SNORD26 /// SNORD27 /// SNORD28 /// SNORD29 /// SNORD31 / Fold change vs veh, SNHG1 /// SNORD22 /// SNORD25 /// SNORD26 /// SNORD27 /// SNORD28 /// SNORD29 /// SNORD31 / Fold change (Aza/veh), C12orf56 (ProbeSet 11735607_a_at) / Fold change (ACY-1035/veh), C12orf56 (ProbeSet 11735607_a_at) / Fold change (Aza/veh), FGFR1OP (ProbeSet 11751329_s_at) / Fold change (ACY-1035/veh), FGFR1OP (ProbeSet 11751329_s_at) / Fold change (Aza/veh), VPS36 (ProbeSet 11739960_a_at) / Fold change (ACY-1035/veh), VPS36 (ProbeSet 11739960_a_at) / RFU SYPL1 (11715823_x_at) / Fold change /veh SYPL1 (11715823_x_at) / RFU IGFBP7 (11715501_s_at) / Fold change /veh IGFBP7 (11715501_s_at) / RFU REEP3 (11722064_at) / Fold change /veh REEP3 (11722064_at) / RFU IGLL1 (11728026_x_at) / Fold change /veh IGLL1 (11728026_x_at): dose or concentration left out as unconfirmed
# Details: ProbeSet 11756954_s_at; LIST B
smiles,measurement,value
Nc1ncn([C@@H]2O[C@H](CO)[C@@H](O)[C@H]2O)c(=O)n1 [azacitidine],"Fold change vs veh, ZEB2",0.83
